Consider one compound from patent US12377112B2, “Methods of treating neurocognitive disorders, chronic pain and reducing inflammation” (priority 2019, dated 2025).

In assay [1] the test system is healthy subjects. The experiment in a line: Phase 1 study: Five Dimension Altered States of Consciousness questionnaire (5D-ASC). The class given is in vivo, human. Particulars: Post-Treatment Day 0; Psilocybin 10 mg. From the text: In some embodiments, the Five Dimension Altered States of Consciousness questionnaire (5D-ASC) is utilized to evaluate the safety and/or efficacy of psilocybin. […] The 5 dimensions include oceanic boundlessness, anxious ego dissolution, visionary restructuralization, auditory alterations and reduction of vigilance.

Assay [2] relates to healthy subjects. Put plainly: Phase 1 study: Positive and Negative Affect Schedule (PANAS). The following applies: for PANAS-Negative, change from baseline, LS mean / PANAS-Positive, change from baseline, LS mean: Post-Treatment Day 0. It counts as in vivo, human. The text has this:
In some embodiments, the Positive and Negative Affect Schedule (PANAS) is used to evaluate the safety and/or efficacy of psilocybin. The PANAS measures the acute emotional drug effects and comprises 2 mood scales that measure positive and negative affect. Positive affect refers to the propensity to experience positive emotions and interact with others positively. Negative affect involves experiencing the world in a more negative way. Subjects respond to 10 questions associated with negative affect and 10 questions associated with positive affect. The questions are scaled using a 5-point scale that ranges from “slightly or not at all (1)” to “extremely (5)”. A total higher score on the positive affect questions indicates more of a positive effect while a lower score on the negative affect questions indicates less of a negative affect. In some embodiments, after treating according to the methods of the disclosure, a subject experiences a decrease in negative affect score of the PANAS, between about 5% and about 100%, for example about 5%, about 10%, about 15%, about 20%, about 25%, about 30%, about 35%, about 40%, about 45%, about 50%, about 55%, about 60%, about 65%, about 70%, about 75%, about 80%, about 85%, about 90%, about 95%, or about 100%, compared to prior to treatment. In some embodiments, after treating according to the methods of the disclosure, a subject experiences an increase in positive affect score of the PANAS, between about 5% and about 100%, for example about 5%, about 10%, about 15%, about 20%, about 25%, about 30%, about 35%, about 40%, about 45%, about 50%, about 55%, about 60%, about 65%, about 70%, about 75%, about 80%, about 85%, about 90%, about 95%, or about 100%, about 110%, about 120%, about 130%, about 140%, about 150%, about 160%, about 170%, about 180%, about 190%, about 200%, about 210%, about 220%, about 230%, about 240%, about 250%, about 260%, about 270%, about 280%, about 290%, or about 300%, or more, compared to prior to treatment.
The effects of psilocybin usually started about 20 to 30 min after administration, becoming most intense in the first 90 to 120 min and gradually subsiding in about 5 to 6 hours. The subjects were asked to remain in the room for the duration of the session regardless of the intensity of the effects, preferably lying down and mostly silent unless they have a concern or need to communicate a discomfort or seek reassurance from the therapist, or use the restroom. A light meal and fruit were available for the subject after the session. After the acute effects of study drug administration had subsided, all subjects were assessed for safety and asked to complete the following assessments: PANAS and 5D-ASC. Medications used, if any, during the study drug administration session, and adverse events were recorded. The subjects also discussed their psilocybin experience with their therapist. The subject was discharged 6 to 8 hours post dose when, in the opinion of the investigator, the acute effects of psilocybin were resolved. After the acute effects of study drug administration subsided, subjects returned home accompanied by a family member, friend, or chaperone. The therapists checked with the subjects by phone at the end of the day to ensure that the subject arrived home safely.
The Positive and Negative Affects Schedule (PANAS) score was also evaluated to measure the effect of psilocybin.

`CN(C)CCc1c[nH]c2cccc(OP(=O)(O)O)c12` [Psilocybin, psilocybin]: the “5D-ASC Complex imagery, LS mean” value in assay [1] is 53.0. In addition, in assay [2] (25 mg, baseline to day of dosing), the “PANAS negative affect, mean increase” value is recorded as 1.3. Moreover, in assay [2] (Psilocybin 10 mg), the “PANAS-Negative, change from baseline, LS mean” value is −0.6 and the “PANAS-Positive, change from baseline, LS mean” value stood at 0.7. For the same compound, in assay [2] (Psilocybin 25 mg), the “PANAS-Negative, change from baseline, LS mean” value amounted to 1.3 and the “PANAS-Positive, change from baseline, LS mean” value was −0.4.
